System: NCI-H1417 complex spheroids, growth % test/control
Assay: Anticancer human tumor NCI-H1417 cell line growth inhibition [Asc];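 further: spheroids exposed to compounds for 7 days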;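 on viability, T/C: 100% = DMSO vehicle control wells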
Settings: for IC50: curve of first compound; for viability, T/C: stronger effect = lower value
Outline: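 Complex solid-tumor spheroids incorporating human endothelial and mesenchymal stem cells received single agents or combinations over half-log dilution ranges anchored to clinical Cmax.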

[1] = second compound 0.03 µM, first compound 0.00316 µM
[2] = second compound 0.03 µM, first compound 0.01 µM
[3] = second compound 0.03 µM, first compound 0.0316 µM
[4] = second compound 0.03 µM, first compound 0.1 µM
[5] = second compound 0.0949 µM, first compound 0.00316 µM
[6] = second compound 0.0949 µM, first compound 0.01 µM
[7] = second compound 0.0949 µM, first compound 0.0316 µM
[8] = second compound 0.0949 µM, first compound 0.1 µM
[9] = second compound 0.3 µM, first compound 0.00316 µM
[10] = second compound 0.3 µM, first compound 0.01 µM
[11] = second compound 0.3 µM, first compound 0.0316 µM
[12] = second compound 0.3 µM, first compound 0.1 µM
[13] = second compound 0.949 µM, first compound 0.00316 µM
[14] = second compound 0.949 µM, first compound 0.01 µM
[15] = second compound 0.949 µM, first compound 0.0316 µM
[16] = second compound 0.949 µM, first compound 0.1 µM
[17] = second compound 3 µM, first compound 0.00316 µM
[18] = second compound 3 µM, first compound 0.01 µM
[19] = second compound 3 µM, first compound 0.0316 µM
[20] = second compound 3 µM, first compound 0.1 µM

Question: Which results are given for COc1c(OCCCN2CCOCC2)ccc2c3n(c(=NC(=O)c4cnc(N)nc4)nc12)CCN3 + CCN1C(C(=O)NC23CCC(C(=O)O)(CC2)CC3)C(c2cccc(Cl)c2F)C2(C(=O)Nc3cc(Cl)ccc32)C12CCCCC2?
Answer: IC50 (second compound 0.03 µM): > 1000 nM; IC50 (second compound 0.0949 µM): > 1000 nM; IC50 (second compound 0.3 µM): > 1000 nM; IC50 (second compound 0.949 µM): 484 nM; IC50 (second compound 3 µM): 243 nM; viability, T/C [1]: 107%; viability, T/C [2]: 114%; viability, T/C [3]: 95.8%; viability, T/C [4]: 100%; viability, T/C (second compound 0.03 µM, first compound 0.316 µM): 96.7%; viability, T/C (second compound 0.03 µM, first compound 1 µM): 59.2%; viability, T/C [5]: 94.6%; viability, T/C [6]: 96.7%; viability, T/C [7]: 87.2%; viability, T/C [8]: 90.3%; viability, T/C (second compound 0.0949 µM, first compound 0.316 µM): 80.5%; viability, T/C (second compound 0.0949 µM, first compound 1 µM): 58.7%; viability, T/C [9]: 93.2%; viability, T/C [10]: 93.6%; viability, T/C [11]: 81.2%; viability, T/C [12]: 74.8%; viability, T/C (second compound 0.3 µM, first compound 0.316 µM): 57.6%; viability, T/C (second compound 0.3 µM, first compound 1 µM): 51.5%; viability, T/C [13]: 89.6%; viability, T/C [14]: 92.2%; viability, T/C [15]: 81%; viability, T/C [16]: 64.9%; viability, T/C (second compound 0.949 µM, first compound 0.316 µM): 55.8%; viability, T/C (second compound 0.949 µM, first compound 1 µM): 43.6%; viability, T/C [17]: 92.4%; viability, T/C [18]: 89.8%; viability, T/C [19]: 86.7%; viability, T/C [20]: 63.1%; viability, T/C (second compound 3 µM, first compound 0.316 µM): 47.7%; viability, T/C (second compound 3 µM, first compound 1 µM): 36%

Question: For NC(=O)C(=Cn1cnc(-c2cc(C(F)(F)F)cc(C(F)(F)F)c2)n1)c1cncnc1 + CCN1C(C(=O)NC23CCC(C(=O)O)(CC2)CC3)C(c2cccc(Cl)c2F)C2(C(=O)Nc3cc(Cl)ccc32)C12CCCCC2, which IC50 (second compound 0.03 µM) is on record?
Answer: 128 nM

Question: And the IC50 (second compound 0.0949 µM)?
Answer: 104 nM

Question: And the IC50 (second compound 0.3 µM)?
Answer: 100 nM

Question: What about the IC50 (second compound 0.949 µM) of the same molecule?
Answer: 102 nM

Question: What about the IC50 (second compound 3 µM) of the same molecule?
Answer: 59.1 nM

Question: What about the viability, T/C (second compound 0.03 µM, first compound 0.000949 µM) of the same molecule?
Answer: 95.9%

Question: And the viability, T/C (second compound 0.03 µM, first compound 0.003 µM)?
Answer: 112%

Question: What about the viability, T/C (second compound 0.03 µM, first compound 0.00949 µM) of the same molecule?
Answer: 93.5%

Question: What about the viability, T/C (second compound 0.03 µM, first compound 0.03 µM) of the same molecule?
Answer: 96%

Question: What about the viability, T/C (second compound 0.03 µM, first compound 0.0949 µM) of the same molecule?
Answer: 59.7%

Question: And the viability, T/C (second compound 0.03 µM, first compound 0.3 µM)?
Answer: 21.9%

Question: And the viability, T/C (second compound 0.0949 µM, first compound 0.000949 µM)?
Answer: 96.7%

Question: What about the viability, T/C (second compound 0.0949 µM, first compound 0.003 µM) of the same molecule?
Answer: 101%

Question: And the viability, T/C (second compound 0.0949 µM, first compound 0.00949 µM)?
Answer: 97.2%

Question: What about the viability, T/C (second compound 0.0949 µM, first compound 0.03 µM) of the same molecule?
Answer: 87%

Question: What about the viability, T/C (second compound 0.0949 µM, first compound 0.0949 µM) of the same molecule?
Answer: 52.9%

Question: What about the viability, T/C (second compound 0.0949 µM, first compound 0.3 µM) of the same molecule?
Answer: 18.9%

Question: What about the viability, T/C (second compound 0.3 µM, first compound 0.000949 µM) of the same molecule?
Answer: 97.7%

Question: And the viability, T/C (second compound 0.3 µM, first compound 0.003 µM)?
Answer: 97%

Question: And the viability, T/C (second compound 0.3 µM, first compound 0.00949 µM)?
Answer: 96.2%

Question: What about the viability, T/C (second compound 0.3 µM, first compound 0.03 µM) of the same molecule?
Answer: 87.3%

Question: And the viability, T/C (second compound 0.3 µM, first compound 0.0949 µM)?
Answer: 51.6%

Question: What about the viability, T/C (second compound 0.3 µM, first compound 0.3 µM) of the same molecule?
Answer: 19.1%

Question: What about the viability, T/C (second compound 0.949 µM, first compound 0.000949 µM) of the same molecule?
Answer: 93.6%

Question: And the viability, T/C (second compound 0.949 µM, first compound 0.003 µM)?
Answer: 96.3%

Question: What about the viability, T/C (second compound 0.949 µM, first compound 0.00949 µM) of the same molecule?
Answer: 85.1%

Question: What about the viability, T/C (second compound 0.949 µM, first compound 0.03 µM) of the same molecule?
Answer: 73.9%

Question: And the viability, T/C (second compound 0.949 µM, first compound 0.0949 µM)?
Answer: 52.6%

Question: And the viability, T/C (second compound 0.949 µM, first compound 0.3 µM)?
Answer: 18.8%

Question: And the viability, T/C (second compound 3 µM, first compound 0.000949 µM)?
Answer: 97.5%

Question: What about the viability, T/C (second compound 3 µM, first compound 0.003 µM) of the same molecule?
Answer: 98.8%

Question: And the viability, T/C (second compound 3 µM, first compound 0.00949 µM)?
Answer: 81.3%

Question: And the viability, T/C (second compound 3 µM, first compound 0.03 µM)?
Answer: 67.9%

Question: And the viability, T/C (second compound 3 µM, first compound 0.0949 µM)?
Answer: 38.1%

Question: And the viability, T/C (second compound 3 µM, first compound 0.3 µM)?
Answer: 16.3%

Question: With NC1CCC(NC2CC2c2ccccc2)CC1 (stereo not given) + CCN1C(C(=O)NC23CCC(C(=O)O)(CC2)CC3)C(c2cccc(Cl)c2F)C2(C(=O)Nc3cc(Cl)ccc32)C12CCCCC2 as the molecule, how does the IC50 (second compound 0.03 µM) read?
Answer: > 100 nM

Question: What about the IC50 (second compound 0.0949 µM) of the same molecule?
Answer: > 100 nM

Question: What about the IC50 (second compound 0.3 µM) of the same molecule?
Answer: > 100 nM

Question: And the IC50 (second compound 0.949 µM)?
Answer: > 100 nM

Question: And the IC50 (second compound 3 µM)?
Answer: > 100 nM

Question: What about the viability, T/C (second compound 0.03 µM, first compound 0.000316 µM) of the same molecule?
Answer: 86%

Question: What about the viability, T/C (second compound 0.03 µM, first compound 0.001 µM) of the same molecule?
Answer: 73.9%

Question: What about the viability, T/C [1] of the same molecule?
Answer: 74.5%

Question: What about the viability, T/C [2] of the same molecule?
Answer: 71.3%

Question: What about the viability, T/C [3] of the same molecule?
Answer: 78.6%

Question: What about the viability, T/C [4] of the same molecule?
Answer: 73.1%

Question: What about the viability, T/C (second compound 0.0949 µM, first compound 0.000316 µM) of the same molecule?
Answer: 80.5%

Question: What about the viability, T/C (second compound 0.0949 µM, first compound 0.001 µM) of the same molecule?
Answer: 78.3%

Question: What about the viability, T/C [5] of the same molecule?
Answer: 63.5%

Question: And the viability, T/C [6]?
Answer: 69.8%

Question: And the viability, T/C [7]?
Answer: 73.1%

Question: What about the viability, T/C [8] of the same molecule?
Answer: 66%

Question: What about the viability, T/C (second compound 0.3 µM, first compound 0.000316 µM) of the same molecule?
Answer: 79.7%

Question: And the viability, T/C (second compound 0.3 µM, first compound 0.001 µM)?
Answer: 64.8%

Question: What about the viability, T/C [9] of the same molecule?
Answer: 65%

Question: What about the viability, T/C [10] of the same molecule?
Answer: 61%

Question: What about the viability, T/C [11] of the same molecule?
Answer: 63.8%

Question: What about the viability, T/C [12] of the same molecule?
Answer: 62.5%

Question: And the viability, T/C (second compound 0.949 µM, first compound 0.000316 µM)?
Answer: 78.3%

Question: And the viability, T/C (second compound 0.949 µM, first compound 0.001 µM)?
Answer: 64.9%

Question: And the viability, T/C [13]?
Answer: 67.6%

Question: And the viability, T/C [14]?
Answer: 60.7%

Question: What about the viability, T/C [15] of the same molecule?
Answer: 60.2%

Question: What about the viability, T/C [16] of the same molecule?
Answer: 61.5%

Question: And the viability, T/C (second compound 3 µM, first compound 0.000316 µM)?
Answer: 76.9%

Question: And the viability, T/C (second compound 3 µM, first compound 0.001 µM)?
Answer: 65.9%

Question: And the viability, T/C [17]?
Answer: 62.4%

Question: And the viability, T/C [18]?
Answer: 59.2%

Question: And the viability, T/C [19]?
Answer: 55.3%

Question: What about the viability, T/C [20] of the same molecule?
Answer: 67.5%
